Data taken from the CheMixHub viscosity set.

Test: xn = mol fraction of the nth substance listed

CCc1ccccc1 + CCO
viscosity [mPa·s], 101.33 kPa
Settings	x2 = 0.4	x2 = 0.6	x2 = 0.8	x2 = 0.9
303 K	0.625	0.732	0.842	0.9
313 K	0.547	0.627	0.706	0.752
323 K	0.482	0.54	0.602	0.632

Clc1cccc2ccccc12 + CCO
viscosity [mPa·s], 101.33 kPa
Settings	x1 = 0.0773	x1 = 0.2002	x1 = 0.3006	x1 = 0.3989	x1 = 0.5008	x1 = 0.5979	x1 = 0.7026	x1 = 0.8011	x1 = 0.9009
298.15 K	1.238	1.455	1.63	1.779	1.953	2.11	2.298	2.47	2.655
303.15 K	1.119	1.314	1.471	1.606	1.757	1.89	2.045	2.214	2.389
308.15 K	1.016	1.192	1.334	1.456	1.588	1.714	1.865	2.006	2.158

COCCOCCOCCOCCOC + CCOC(=O)OCC
298.15 K, 101.33 kPa
Settings	viscosity [mPa·s]
x1 = 0.0049	0.752
x1 = 0.014	0.772
x1 = 0.0274	0.796
x1 = 0.044	0.824
x1 = 0.068	0.879
x1 = 0.0984	0.938
x1 = 0.1416	1.029
x1 = 0.2036	1.164
x1 = 0.2814	1.348
x1 = 0.3146	1.434
x1 = 0.3497	1.519
x1 = 0.3949	1.634
x1 = 0.4546	1.798
x1 = 0.5017	1.939
x1 = 0.5551	2.083
x1 = 0.5999	2.204
x1 = 0.6478	2.349
x1 = 0.691	2.478
x1 = 0.7376	2.614
x1 = 0.7849	2.76
x1 = 0.8377	2.915
x1 = 0.8758	3.028
x1 = 0.9345	3.218
x1 = 0.9719	3.328
x2 = 0.0132	3.378

COCCOCCOCCOCCOC + CCOC(C)=O
viscosity [mPa·s], 101 kPa
Settings	298.15 K	308.15 K	318.15 K
x1 = 0.0108	0.448	0.399	0.364
x1 = 0.0195	0.462	0.413	0.375
x1 = 0.0488	0.514	0.456	0.413
x1 = 0.0905	0.594	0.521	0.465
x1 = 0.1406	0.695	0.607	0.534
x1 = 0.1786	0.779	0.673	0.591
x1 = 0.2377	0.919	0.784	0.68
x1 = 0.3377	1.176	0.988	0.847
x1 = 0.4796	1.579	1.315	1.092
x1 = 0.5793	1.896	1.549	1.282
x1 = 0.6422	2.11	1.699	1.4
x1 = 0.7422	2.453	1.97	1.549
x1 = 0.8246	2.726	2.169	1.755
x1 = 0.8574	2.878	2.258	1.826
x1 = 0.9081	3.019	2.398	1.921
x1 = 0.9454	3.159	2.488	1.998
x1 = 0.9792	3.305	2.581	2.072

Clc1ccccc1 + CCOC(C)=O
viscosity [mPa·s], 101 kPa
Settings	298.15 K	308.15 K
x2 = 0.0415	0.729	0.658
x2 = 0.1504	0.669	0.607
x2 = 0.2503	0.621	0.567
x2 = 0.3519	0.58	0.531
x2 = 0.4264	0.553	0.507
x2 = 0.4878	0.534	0.489
x2 = 0.5527	0.515	0.472
x2 = 0.6519	0.489	0.448
x2 = 0.7505	0.468	0.428
x2 = 0.8515	0.449	0.409
x2 = 0.9389	0.436	0.396

N#CCCCCC#N + CCOC(C)=O
303.15 K, 101.33 kPa
Settings	viscosity [mPa·s]
x1 = 0.1075	0.5353
x1 = 0.3039	0.8893
x1 = 0.3934	1.116
x1 = 0.4973	1.451
x1 = 0.5975	1.861
x1 = 0.6944	2.366
x1 = 0.85	3.442

C=CC(=O)OCC + CCOCCOCCO
viscosity [mPa·s], 101 kPa
Settings	293.15 K	298.15 K	303.15 K	308.15 K	313.15 K	318.15 K
x2 = 0.0707	0.666	0.624	0.587	0.551	0.521	0.499
x2 = 0.1417	0.76	0.708	0.662	0.62	0.582	0.547
x2 = 0.2167	0.879	0.813	0.756	0.704	0.66	0.619
x2 = 0.2803	0.997	0.918	0.85	0.79	0.735	0.686
x2 = 0.3626	1.192	1.075	0.989	0.914	0.847	0.788
x2 = 0.4228	1.335	1.227	1.113	1.024	0.946	0.877
x2 = 0.5004	1.571	1.438	1.305	1.175	1.079	0.995
x2 = 0.5659	1.812	1.628	1.477	1.329	1.214	1.112
x2 = 0.6497	2.136	1.927	1.737	1.563	1.411	1.287
x2 = 0.7196	2.467	2.207	1.956	1.759	1.599	1.459
x2 = 0.791	2.845	2.512	2.233	1.998	1.797	1.627
x2 = 0.869	3.342	2.93	2.558	2.302	2.046	1.857
x2 = 0.9299	3.752	3.274	2.84	2.552	2.258	2.044

Clc1ccccc1 + CN1CCCC1=O
viscosity [mPa·s], 101 kPa
Settings	x2 = 0.1055	x2 = 0.2097	x2 = 0.3127	x2 = 0.4144	x2 = 0.5149	x2 = 0.6142	x2 = 0.7124	x2 = 0.8094	x2 = 0.9052
303.15 K	0.8395	0.9497	1.057	1.153	1.242	1.322	1.39	1.455	1.508
308.15 K	0.7814	0.8809	0.9724	1.059	1.14	1.207	1.267	1.323	1.366
313.15 K	0.737	0.8284	0.9144	0.9933	1.067	1.132	1.187	1.24	1.282
318.15 K	0.6786	0.7611	0.8372	0.9111	0.9802	1.04	1.093	1.137	1.175

CCOP(=O)(OCC)OCC + CN(C)C=O
298.15 K, 101.3 kPa
Settings	viscosity [mPa·s]
x1 = 0.1003	0.883
x1 = 0.2008	0.967
x1 = 0.298	1.044
x1 = 0.398	1.123
x1 = 0.4979	1.195
x1 = 0.6076	1.268
x1 = 0.6995	1.329
x1 = 0.7969	1.389
x1 = 0.8973	1.447

CCc1ccccc1 + CN(C)C=O
viscosity [mPa·s], 101.33 kPa
Settings	303.15 K	313.15 K
x2 = 0.0997	0.597	0.542
x2 = 0.1996	–	0.556
x2 = 0.1997	0.614	–
x2 = 0.2997	–	0.568
x2 = 0.2999	0.631	–
x2 = 0.4154	0.652	0.584
x2 = 0.5109	0.667	0.597
x2 = 0.584	0.679	0.608
x2 = 0.6991	0.696	0.625
x2 = 0.8014	0.709	0.641
x2 = 0.8872	0.719	0.652

Clc1ccccc1 + CN(C)C=O
viscosity [mPa·s], 101.33 kPa
Settings	x2 = 0.1076	x2 = 0.2986	x2 = 0.397	x2 = 0.5024	x2 = 0.6054	x2 = 0.7013	x2 = 0.7925	x2 = 0.8973
303.15 K	0.731	0.76	0.767	–	0.773	0.774	0.771	0.754
313.15 K	–	–	0.69	0.694	0.695	0.694	0.688	–

N#CCCCCC#N + CN(C)C=O
303.15 K, 101.33 kPa
Settings	viscosity [mPa·s]
x1 = 0.1051	0.9087
x1 = 0.2983	1.335
x1 = 0.3971	1.636
x1 = 0.4957	2.001
x1 = 0.5919	2.413
x1 = 0.6983	2.957
x1 = 0.8486	3.821

OCCCCCO + CN(C)C=O
308.15 K, 101 kPa
Settings	viscosity [mPa·s]
x1 = 0.025	0.759
x1 = 0.0483	0.826
x1 = 0.1005	1.025
x1 = 0.1877	1.446
x1 = 0.2971	2.284
x1 = 0.388	3.676
x1 = 0.4882	5.774
x1 = 0.586	9.073
x1 = 0.6875	14.59
x1 = 0.7802	22.71
x1 = 0.9446	49.91
x1 = 0.9714	56.42

CCOP(=O)(OCC)OCC + CNC=O
298.15 K, 101.3 kPa
Settings	viscosity [mPa·s]
x1 = 0.0969	1.719
x1 = 0.1954	1.713
x1 = 0.294	1.689
x1 = 0.399	1.654
x1 = 0.5004	1.625
x1 = 0.5987	1.599
x1 = 0.6978	1.571
x1 = 0.799	1.546
x1 = 0.8929	1.524
